In patent US7947308B2, “Effervescent powders for inhalation” (priority 2005, dated 2011):

Experiment: In vitro aerosol deposition, Mark II Andersen Cascade Impactor (MMAD, FPF, GSD)
Format: physicochemical
Details: spray-dried carrier particles containing ciprofloxacin; UV assay of impactor plates
Excerpt: The pulmonary deposition of the empty effervescent carrier particles and the carrier particles containing nanoparticles were investigated in vitro by measuring the Mass Median Aerodynamic Diameter (MMAD) using a Mark II Andersen Cascade Impactor (Thermo Andersen, Smyrna, Ga.) in combination with a new high efficiency inhaler (described in U.S. Patent Application Publication No. 2004/0107963 to Finlay, W. H. & Wang, Z., filed Dec. 2, 2003, entitled “Device and Method for Deagglomeration of Powder for Inhalation”, the contents of which are herein incorporated by reference); Wang, Z., Grgic, B., and Finlay, W. H. (2006) A Dry Powder Inhaler with Reduced Mouth-throat Deposition. […]
The MMAD was calculated by linear interpolation of the cumulative mass distribution to obtain the particle size for which the cumulative mass under this size was 50% (Sham, J.-H., Zhang, Y., Finlay, W. H., Roa, W. H. & Lobenberg, R. (2004) Formulation and characterization of spray-dried powders containing nanoparticles for aerosol delivery to the lung. International Journal of Pharmaceutics. 269: 457-467). […]
Particle size and FPF were determined as noted above in Example 1. The dispersibility and content of ciprofloxacin of the spray-dried powders was determined using a Mark II Andersen impactor. […] The MMAD was calculated by a nonlinear regression fit of a log-normal function to the data. […]

range size of most of the particles (cascade impactor): 4.9+/−1 μm
Structure (SMILES): O=C(O)c1cn(C2CC2)c2cc(N3CCNCC3)c(F)cc2c1=O [ciprofloxacin]
